Laboratory results: patent US20230227406A1, “MODULATORS OF E3 LIGASES” (Rekindle Therapeutics Inc., priority 2020, published 2023)

How the values were obtained:
DU-145 cells = assay: Cellular proliferation assay (MTS) in DU-145 cells; assay type: cell-based; settings: Homo sapiens, 72 hours of incubation, read-out: IC50 values for selected compounds in DU-145 cells
Procedure: DU-145 cells were trypsinized, counted via Trypan blue method and resuspended in DMEM complete medium (10% FBS with Pen-strep antibiotics) as described in Lieu et al, Mol Cel Endorinol, 87:19-28, 1992. Cells were seeded at a density of 100 cells per well in 1001 volume of 96-well cell culture plate and were incubated overnight at 37° C. in 5% CO2 incubator. The next day, cells were given fresh media and the test compounds were added in different concentrations. After 72 hours of incubation, MTS reagent (procured from Promega) was added to the cells and they were incubated for an additional 2 hours. Finally, the plates read in the absorbance mode at 490 nm using an ELISA plate reader (Perkin Elmer Victor X3 plate reader). The % growth values were calculated as [(T−T0)/(C−T0)]×100, where T0 is the OD of cells at the time of compound addition, C is the vehicle control, T is the OD of the test concentrations at 72 hours. Percentage inhibition values were calculated using 100−([(T−T0)/(C−T0)]×100). IC50 values were calculated in graph pad prism software using dose response curve nonlinear regression method.

[1] = test system: phosphorylated AKT and phosphorylated Ribosomal Protein S6; assay: Western blot of AKT and S6 phosphorylation in Hs578T cells; assay type: cell-based, human; settings: 48 hours, indicated concentrations
Procedure: Hs578T cells (human triple negative breast cancer) were treated with the indicated concentration of COMPOUND 1 for 48 hours prior to harvesting. The “0” concentration is DMSO only (0.5%, same as was used for compound doses). […] Analysis occurred via western blot using the indicated antibodies. Quantification by densitometry of the bands from the western blot are presented for phosphorylated AKT/Total AKT and phosphorylated Ribosomal Protein S6/Total Ribosomal Protein S6. COMPOUND 1 reduced both AKT and S6 phosphorylation relative to their respective total protein levels.
The data presented here are consistent with the previous replicate in Hs578T cells, and the observation is preserved in another TNBC cell line, BT-20. COMPOUND 1 reduces the phospho-AKT/vinculin loading control and phospho-S6/total S6 ratios. Methods are the same as the previous replicate, using the indicated doses.
Hs578T cells (human triple negative breast cancer) were treated with the indicated concentration of COMPOUND 6 for 48 hours prior to harvesting. The “0” concentration is DMSO only (0.5%, same as was used for compound doses). […] Analysis occurred via western blot using the indicated antibodies.
The data presented here are consistent with the previous replicate in Hs578T cells. COMPOUND 6 reduces the phospho-AKT/vinculin loading control and phospho-S6/total S6 ratios. Methods are the same as the previous replicate, using the indicated doses.
Hs578T cells (human triple negative breast cancer) were treated with the indicated concentration of COMPOUND 7 for 48 hours before harvesting. The “0” concentration is DMSO only (0.5%, same as was used for compound doses). […] Analysis occurred via western blot using the indicated antibodies.
The data presented here are consistent with the previous replicate in Hs578T cells. COMPOUND 7 reduces the phospho-S6/vinculin loading control ratio. Methods are the same as the previous replicate, using the indicated doses.
Hs578T cells (human triple negative breast cancer) were treated with the indicated concentration of COMPOUND 8 for 48 hours and then harvested. The “0” concentration is DMSO only (0.5%, same as was used for compound doses). […] Analysis occurred via western blot using the indicated antibodies.

WWP1 = molecular target: T1, WWP1 (Homo sapiens, UniProt Q9H0M0); assay: WWP1 MALDI-MS ubiquitin depletion assay (auto-ubiquitination); assay type: biochemical; settings: 30 min pre-incubation, 90 minutes at 37° C.
T1 construct: purchased Ubiquigent 63-0034-025/30033/D
Procedure: Modulators designed in these ways were tested for HECT domain E3 ligase activity in a MALDI TOF assay of auto-ubiquitination (De Cesare et al, Cell Chem. Biol, 2018, 25, 1117)
UBE1 (E-305 Boston Biochem), UBE2D1 (E2-616 Boston Biochem), WWP1 (Ubiquigent #63-0034-025/30033/D), ubiquitin variants (Boston Biochem; ubiquitin: U-100H; WT-His6-Ub: U-530; K27R-His6-Ub:UM-HK27R; K27O-His6-Ub: UM-HK27O), alpha-cyano-4-hydroxycinnamic acid (CHCA), ATP, trifluoroacetic acid (Millipore Sigma, St. Louis, Mo.), 384-well round-bottom polypropylene microplates (781280, Greiner, Stonehouse, UK), 384-well Anchorchip MALDI targets and Peptide Calibration Standard II (Bruker Daltonics, Billerica, Mass.).
Protocol: The WWP1 ubiquitin depletion assay consists of recombinant UBE1 (5 nM), UBE2D1 conjugating enzyme (60 nM) and WWP1 ligase (50 nM) in a 10 mM HEPES pH 8.0 containing 0.1 mg/mL BSA, 10 mM MgCl2, 1 mM ATP and 1500 nM ubiquitin. Screening was performed by dispensing 3.5 μL of an enzyme solution containing UBE1 (10 nM), UBE2D1 (120 nM), WWP1 (100 nM), ubiquitin ([…]) to a 384-well round bottom polypropylene plates followed by incubation at 37° C. for 30 min. Reactions were initiated by the addition of 3.5 μL of an ATP solution (2000 nM) then incubated at 37° C. for 90 minutes before being quenched by the addition of 5 μL of a 50 mM EDTA solution containing 750 nM of a ubiquitin labelled with a histidine expression tag (m/z=9460.0 Da).
For detection of ubiquitin and the ubiquitin-6His internal standards, 50 nL of quenched reaction was dispensed onto a 384-well Anchorchip MALDI target plate (Bruker) pre-coated with a uniform layer of CHCA crystals immediately followed by 200 nL of a 3 mg/mL CHCA matrix solution (6 mg of CHCA dissolved in 0.7 mL of 100% ethanol and 1.3 mL of 0.31% aqueous TFA) using a TTP Labtech Mosquito liquid handler. Spectra for all reactions were acquired on a Bruker AutoFlex II in positive linear TOF mode from 1000 laser shots with ion suppression below 4000 Da. Spectra were analyzed for response using a centroid peak-fitting algorithm to quantify ubiquitin (m/z=8564.0 Da) and ubiquitin-6His (m/z=9460.0 Da) followed taking the ratio of intensities of ubiquitin and the ubiquitin-6His internal standard.
For compound screening, 140 nL of diluted compound in 100% DMSO was added to the WWP1 enzyme solution and pre-incubated for 30 minutes prior to reaction initiation.

T1 sequence (Q9H0M0 whole entry): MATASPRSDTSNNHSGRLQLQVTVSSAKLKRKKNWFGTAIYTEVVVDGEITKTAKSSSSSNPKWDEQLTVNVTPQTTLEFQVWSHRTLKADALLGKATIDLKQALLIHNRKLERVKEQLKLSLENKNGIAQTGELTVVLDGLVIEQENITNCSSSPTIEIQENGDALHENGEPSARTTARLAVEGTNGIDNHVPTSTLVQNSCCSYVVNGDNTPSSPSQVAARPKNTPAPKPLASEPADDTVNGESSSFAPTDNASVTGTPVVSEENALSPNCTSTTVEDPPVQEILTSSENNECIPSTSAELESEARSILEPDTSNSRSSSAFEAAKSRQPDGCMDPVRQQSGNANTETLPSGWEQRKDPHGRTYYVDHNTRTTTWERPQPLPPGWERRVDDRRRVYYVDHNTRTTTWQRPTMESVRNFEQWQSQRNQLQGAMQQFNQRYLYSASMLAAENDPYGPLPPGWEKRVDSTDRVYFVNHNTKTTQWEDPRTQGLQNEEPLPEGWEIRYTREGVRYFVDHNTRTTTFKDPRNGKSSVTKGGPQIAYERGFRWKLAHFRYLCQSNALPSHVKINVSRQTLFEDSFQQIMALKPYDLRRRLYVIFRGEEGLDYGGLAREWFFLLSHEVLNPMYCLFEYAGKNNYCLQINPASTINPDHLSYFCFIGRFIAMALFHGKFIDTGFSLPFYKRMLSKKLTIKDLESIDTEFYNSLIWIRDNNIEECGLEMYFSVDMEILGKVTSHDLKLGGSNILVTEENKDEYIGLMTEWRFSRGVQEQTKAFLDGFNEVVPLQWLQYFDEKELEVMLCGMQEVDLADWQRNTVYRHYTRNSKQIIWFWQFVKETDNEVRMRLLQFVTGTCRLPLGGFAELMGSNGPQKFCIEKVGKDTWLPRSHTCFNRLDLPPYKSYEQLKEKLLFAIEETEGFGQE

C#Cc1ccc2c(C=O)cn(-c3ccccc3)c2c1 [Compound 1, 6-ethynyl-1-phenyl-1H-indole-3-carbaldehyde]
IC50 (DU-145 cells): 13.5 µM | AKT phosphorylation (relative to total AKT or vinculin loading control) [1]: reduces | S6 phosphorylation (relative to total S6 or vinculin loading control) [1]: reduces | IC50 (WWP1): 5 µM

C#CCNC(=O)c1ccc2c(Cc3c[nH]c4ccccc34)c[nH]c2c1 [Compound 6, 3-((1H-indol-3-yl)methyl)-N-(prop-2-yn-1-yl)-1H-indole-6-carboxamide]
IC50 (DU-145 cells): 8.08 µM | AKT phosphorylation (relative to total AKT or vinculin loading control) [1]: reduces | S6 phosphorylation (relative to total S6 or vinculin loading control) [1]: reduces | IC50 (WWP1): 32 µM

C#CCN(CCO)C(=O)c1ccc2c(Cc3c[nH]c4ccccc34)c[nH]c2c1 [Compound 7, 3-((1H-indol-3-yl)methyl)-N-(2-hydroxyethyl)-N-(prop-2-yn-1-yl)-1H-indole-6-carboxamide]
IC50 (DU-145 cells): 5.01 µM | AKT phosphorylation (relative to total AKT or vinculin loading control) [1]: reduced | S6 phosphorylation (relative to total S6 or vinculin loading control) [1]: reduces | IC50 (WWP1): 15 µM
